Test results taken from patent EP1401467B3, “ALPHA-FETOPROTEIN PEPTIDES AND USES THEREOF” (Albany Medical College, priority 2001, dated 2003).
Entries after “also recorded” stand apart in the source; their conditions may differ. Each block holds one molecule with its values, some of them ahead of it. Square brackets hold non-standard residues; d marks the D form. Peptide text beside a SMILES is read from it. Hyp = O=C(O)[C@@H]1C[C@@H](O)CN1

How the values were obtained:
[1] = Shelf-life / storage studies of lyophilized peptide, read out in the immature mouse uterine growth assay; assay type: physicochemical; settings: for shelf-life: storage in the lyophilized state at -20°C, activity tested in immature mouse uterine growth assay
Description: Peptide or vehicle control was injected i.p. into immature female Swiss mice. One hour later 0.5 µg of E2 or vehicle control was injected i.p. into these mice. Twenty-two hours later, uteri were dissected and weighed. Percent inhibition of E2-stimulated growth of uterus by peptide was calculated as described in Materials and Methods. There were five to eight replicate mice per treatment group. (Figure 1a) Peptide dose-response. […] Peptide, SEQ ID NO:2: […], was fractionated using a Waters SW 200 gel-filtration column using phosphate buffered saline pH 7.4 as mobil phase. Fractions which had significant UV absorbance at 230 nm were collected at twenty second intervals. The first fraction (Frac I), the last fraction (Frac III), and the starting material (UnFrac) were all tested in the immature mouse uterine growth assay as described in Figures 1a and 1b. […] (Figure 3a) dose-response. […] (Figure 4a) dose-response. […] There were five to eight replicate mice per treatment group. Estrogen was provided via a slow release pellet implanted subcutaneously. Peptide was given twice a day i.p. at a dose of 1 µg per mouse. Tumor volumes in each mouse were measured at the time of tumor implantation and at 10-day intervals thereafter during survival laparotomies. […] (Figure 6a) dose-response. […] Experimental protocol is described in legend to Figure 5 and Materials and Methods. […] Rabbit uterine cytosol was used as a source of estrogen receptor. All incubations were performed in triplicate, each containing 100 µl of cytosol, 20 µl of 10 nM 6,7-^3Hestradiol (50 Ci/mmol), and 80 µl of test agent at the final concentrations indicated on the abscissa. Details of the assay are described in Materials and Methods. • Concentration of [^3H] E2-complex with receptor in the presence of different concentrations of test agent is expressed as a percentage of the amount of complex formed in the absence of test agent; • Figures 9a and 9b illustrate the effect of AFP-derived peptide on growth of estrogen-receptor-positive MCF-7 and MCF-7/Tam.human breast cancer xenografts. Tumors were implanted as described in Materials and Methods. […] Tumor volumes in each mouse were measured at the time of tumor implantation, again at day 15 after tumor implantation during survival laparotomy and again at day 30 after tumor implantation during necropsy. There was a minimum of 5 mice per group. (Figure 9a) MCF-7 tumors. […] See legend to Figures 9a and 9b for experimental protocol. […] See legend to Figures 9a and 9b for experimental protocol. […] Rabbit uterine cytosol was used as a source of estrogen receptor. All incubations were performed in triplicate, each containing 100 µl of cytosol, 20 µl of 10 nM 6,7-^3H estradiol (50 Ci/mmol), and 80 µl of test agent at the final concentrations indicated on the abscissa. […]

[2] = test system: E2-stimulated growth of immature mouse uterus; settings: for dose of maximal inhibitory activity on estrogen-stimulated growth of immature mouse uterus: i.p., dose-response
Description: (§1) Peptide or vehicle control was injected i.p. into immature female Swiss mice. One hour later 0.5 µg of E2 or vehicle control was injected i.p. into these mice. Twenty-two hours later, uteri were dissected and weighed. Percent inhibition of E2-stimulated growth of uterus by peptide was calculated as described in Materials and Methods. There were five to eight replicate mice per treatment group. (Figure 1a) Peptide dose-response. […] Peptide, SEQ ID NO:2: […], was fractionated using a Waters SW 200 gel-filtration column using phosphate buffered saline pH 7.4 as mobil phase. Fractions which had significant UV absorbance at 230 nm were collected at twenty second intervals. The first fraction (Frac I), the last fraction (Frac III), and the starting material (UnFrac) were all tested in the immature mouse uterine growth assay as described in Figures 1a and 1b. […] (Figure 3a) dose-response. […] (Figure 4a) dose-response. […] There were five to eight replicate mice per treatment group. Estrogen was provided via a slow release pellet implanted subcutaneously. Peptide was given twice a day i.p. at a dose of 1 µg per mouse. Tumor volumes in each mouse were measured at the time of tumor implantation and at 10-day intervals thereafter during survival laparotomies. […] (Figure 6a) dose-response. […] Experimental protocol is described in legend to Figure 5 and Materials and Methods. […] Rabbit uterine cytosol was used as a source of estrogen receptor. All incubations were performed in triplicate, each containing 100 µl of cytosol, 20 µl of 10 nM 6,7-^3Hestradiol (50 Ci/mmol), and 80 µl of test agent at the final concentrations indicated on the abscissa. Details of the assay are described in Materials and Methods. • Concentration of [^3H] E2-complex with receptor in the presence of different concentrations of test agent is expressed as a percentage of the amount of complex formed in the absence of test agent; • Figures 9a and 9b illustrate the effect of AFP-derived peptide on growth of estrogen-receptor-positive MCF-7 and MCF-7/Tam.human breast cancer xenografts. Tumors were implanted as described in Materials and Methods. […] Tumor volumes in each mouse were measured at the time of tumor implantation, again at day 15 after tumor implantation during survival laparotomy and again at day 30 after tumor implantation during necropsy. There was a minimum of 5 mice per group. (Figure 9a) MCF-7 tumors. […] See legend to Figures 9a and 9b for experimental protocol. […] See legend to Figures 9a and 9b for experimental protocol. […] Rabbit uterine cytosol was used as a source of estrogen receptor. All incubations were performed in triplicate, each containing 100 µl of cytosol, 20 µl of 10 nM 6,7-^3H estradiol (50 Ci/mmol), and 80 µl of test agent at the final concentrations indicated on the abscissa. Concentration of [^3H] […] The assay procedure is described in the Materials and Methods.

[3] = test system: MCF-7 human breast cancer xenografts; test: Human breast cancer xenograft assay, MCF-7; assay type: in vivo; settings: E2 implant, 30-day observation
Description: Peptide or vehicle control was injected i.p. into immature female Swiss mice. One hour later 0.5 µg of E2 or vehicle control was injected i.p. into these mice. Twenty-two hours later, uteri were dissected and weighed. Percent inhibition of E2-stimulated growth of uterus by peptide was calculated as described in Materials and Methods. There were five to eight replicate mice per treatment group. (Figure 1a) Peptide dose-response. […] Peptide, SEQ ID NO:2: […], was fractionated using a Waters SW 200 gel-filtration column using phosphate buffered saline pH 7.4 as mobil phase. Fractions which had significant UV absorbance at 230 nm were collected at twenty second intervals. The first fraction (Frac I), the last fraction (Frac III), and the starting material (UnFrac) were all tested in the immature mouse uterine growth assay as described in Figures 1a and 1b. […] (Figure 3a) dose-response. […] (Figure 4a) dose-response. […] There were five to eight replicate mice per treatment group. Estrogen was provided via a slow release pellet implanted subcutaneously. Peptide was given twice a day i.p. at a dose of 1 µg per mouse. Tumor volumes in each mouse were measured at the time of tumor implantation and at 10-day intervals thereafter during survival laparotomies. […] (Figure 6a) dose-response. […] Experimental protocol is described in legend to Figure 5 and Materials and Methods. […] Rabbit uterine cytosol was used as a source of estrogen receptor. […] E2-complex with receptor in the presence of different concentrations of test agent is expressed as a percentage of the amount of complex formed in the absence of test agent; • Figures 9a and 9b illustrate the effect of AFP-derived peptide on growth of estrogen-receptor-positive MCF-7 and MCF-7/Tam.human breast cancer xenografts. […] Tumor volumes in each mouse were measured at the time of tumor implantation, again at day 15 after tumor implantation during survival laparotomy and again at day 30 after tumor implantation during necropsy. […]

[4] = mouse, in vivo
estrogen receptor = biological target: T1, estrogen receptor (Oryctolagus cuniculus, UniProt G1SML6); settings: at a concentration of 100 nM; rabbit uterine cytosol
T1 sequence (G1SML6 1-598): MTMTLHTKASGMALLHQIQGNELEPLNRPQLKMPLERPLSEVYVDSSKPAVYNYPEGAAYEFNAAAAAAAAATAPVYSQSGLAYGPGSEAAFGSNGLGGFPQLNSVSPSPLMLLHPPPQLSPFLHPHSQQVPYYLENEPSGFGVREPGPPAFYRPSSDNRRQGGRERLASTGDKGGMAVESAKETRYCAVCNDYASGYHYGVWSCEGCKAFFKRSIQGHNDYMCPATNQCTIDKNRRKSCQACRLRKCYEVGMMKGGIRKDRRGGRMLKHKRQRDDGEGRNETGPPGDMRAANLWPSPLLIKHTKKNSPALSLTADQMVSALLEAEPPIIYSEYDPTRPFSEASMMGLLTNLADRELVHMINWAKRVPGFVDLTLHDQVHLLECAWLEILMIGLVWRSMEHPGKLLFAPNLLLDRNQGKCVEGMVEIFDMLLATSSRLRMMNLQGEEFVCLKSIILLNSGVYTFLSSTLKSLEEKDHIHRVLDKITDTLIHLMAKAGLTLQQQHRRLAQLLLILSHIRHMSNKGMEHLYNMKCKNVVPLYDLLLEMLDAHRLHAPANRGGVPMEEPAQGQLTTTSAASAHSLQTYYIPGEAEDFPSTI
Description: as §1

[5] = test system: MCF-7/Tam human breast cancer xenografts; test: Human breast cancer xenograft assay, tamoxifen-resistant MCF-7 subline; assay type: in vivo; settings: tamoxifen 50 µg per mouse i.p. once a day; E2 implant; day 30
Description: Peptide or vehicle control was injected i.p. into immature female Swiss mice. One hour later 0.5 µg of E2 or vehicle control was injected i.p. into these mice. Twenty-two hours later, uteri were dissected and weighed. Percent inhibition of E2-stimulated growth of uterus by peptide was calculated as described in Materials and Methods. There were five to eight replicate mice per treatment group. (Figure 1a) Peptide dose-response. […] Peptide, SEQ ID NO:2: […], was fractionated using a Waters SW 200 gel-filtration column using phosphate buffered saline pH 7.4 as mobil phase. Fractions which had significant UV absorbance at 230 nm were collected at twenty second intervals. […] Tumor volumes in each mouse were measured at the time of tumor implantation and at 10-day intervals thereafter during survival laparotomies. […] E2-complex with receptor in the presence of different concentrations of test agent is expressed as a percentage of the amount of complex formed in the absence of test agent; • Figures 9a and 9b illustrate the effect of AFP-derived peptide on growth of estrogen-receptor-positive MCF-7 and MCF-7/Tam.human breast cancer xenografts. […] Tumor volumes in each mouse were measured at the time of tumor implantation, again at day 15 after tumor implantation during survival laparotomy and again at day 30 after tumor implantation during necropsy. […]

[6] = test system: T47D human breast cancer xenografts; test: Human breast cancer xenograft assay, T47D; assay type: in vivo; settings: tamoxifen
[7] = test system: MCF-7 human breast cancer xenografts; settings: earlier study (Bennett et al. 1998); cited from earlier work
[8] = test system: MDA-MB-231 human breast cancer xenografts; test: Human breast cancer xenograft assay, MDA-MB-231; assay type: in vivo; settings: tamoxifen 50 µg per mouse i.p. once a day

biological activity after treatment with 4 M urea ([1]; stored/aged peptide, brief treatment with 4 M urea): restored the optimal biological activity
SMILES: CSCC[C@@H]1NC(=O)[C@H](CCC(=O)O)NC(=O)[C@H](CCC(N)=O)NC(=O)CNC(=O)[C@@H]2CCCN2C(=O)[C@H](CC(N)=O)NC(=O)[C@H](C(C)C)NC(=O)[C@@H]2CCCN2C(=O)[C@H]([C@@H](C)O)NC1=O (cyclo(EMTPVNPGQ))
biological activity after prolonged storage ([1]; after storage of six months): significant, albeit not optimal, biological activity | shelf-life [1]: somewhat extended but still rather limited shelf-life | inhibition of estrogen-stimulated growth of immature mouse uterus ([2]; at the optimal dose of the linear peptides (1 µg)): very active | dose of maximal inhibitory activity on estrogen-stimulated growth of immature mouse uterus [2]: 10 µg per mouse

SMILES: CSCC[C@@H]1NC(=O)[C@H](CCC(=O)O)NC(=O)[C@H](CCC(N)=O)NC(=O)CNC(=O)[C@@H]2C[C@@H](O)CN2C(=O)[C@H](CC(N)=O)NC(=O)[C@H](C(C)C)NC(=O)[C@@H]2C[C@@H](O)CN2C(=O)[C@H]([C@@H](C)O)NC1=O [Cyclo-(SEQ ID NO:5: EMTOVNOGQ), Cyclo-(EMTOVNOGQ)] (cyclo(EMT[Hyp]VN[Hyp]GQ))
estrogen-dependent growth of MCF-7 human breast cancer xenografts (tumor volume vs E2 alone) ([3]; peptide 1 µg per mouse i.p. twice a day, SCID mice): significantly inhibited | shelf-life [1]: Indefinite shelflife; also recorded: indefinite shelf-life | anti-estrotrophic activity ([2]; at doses higher than 10 µg/mouse): retained significant anti-estrotrophic activity | dose of maximal inhibitory activity on estrogen-stimulated growth of immature mouse uterus [2]: 10 µg per mouse

biological half-life [4]: two to three
SMILES: CSCC[C@H](NC(=O)[C@@H](N)CCC(=O)O)C(=O)N[C@H](C(=O)N1C[C@H](O)C[C@H]1C(=O)N[C@H](C(=O)N[C@@H](CC(N)=O)C(=O)N1C[C@H](O)C[C@H]1C(=O)NCC(N)=O)C(C)C)[C@@H](C)O [SEQ ID NO:4: EMTOVNOG, EMTOVNOG] (H-EMT[Hyp]VN[Hyp]G-NH2)

SMILES: O=C(c1ccc(OCCN2CCCCC2)cc1)c1c(-c2ccc(O)cc2)sc2cc(O)ccc12 [raloxifene]
inhibition of estradiol binding to its receptor (estrogen receptor): completely inhibited

SMILES: CC/C(=C(\c1ccccc1)c1ccc(OCCN(C)C)cc1)c1ccccc1 [tamoxifen]
estrogen-dependent growth of MCF-7 human breast cancer xenografts (tumor volume vs E2 alone) ([3]; tamoxifen 50 µg per mouse i.p. once a day): prevented growth; also recorded: no increase in tumor volume | estrogen-dependent growth of MCF-7 human breast cancer xenografts (tumor volume vs E2 alone) ([3]; tamoxifen 50 µg per mouse i.p. once a day, listed as Tamoxifen): significantly different | growth of tamoxifen-resistant MCF-7 subline xenografts (tumor volume vs E2 alone) [5]: resistant to tamoxifen in vivo; also recorded: only minimally effective | growth of ER+ T47D human breast cancer xenografts [6]: prevented growth | MCF-7 breast cancer xenograft growth [7]: stop MCF-7 breast cancer xenograft growth | growth of ER- MDA-MB-231 human breast cancer xenografts [8]: Neither peptide nor tamoxifen were effective; also recorded: did not affect the growth
